According to patent US9682031B2, “Microcapsules comprising benzoyl peroxide and topical compositions comprising them” (Tagra Biotechnologies Ltd., priority 2009, dated 2017):

Key:
Assay type in all cases: physicochemical
[1] = Congo red oxidation sensitivity / qualitative diffusion test; conditions: microcapsules = sample 2 (PMMA-BPO); 4% (w/w) BPO free or encapsulated, BPO/congo red 30:1, 50-55° C.
Experimental: Azo-dye congo red was used as a model for oxidation-sensitive component, the ratio BPO/congo red=30:1(w/w).
Three comparative systems were utilized: • 1—BPO microcapsules (sample 2) • 2—free BPO • 3—without BPO (blank)
For the preparation of (1) and (2), 9 g (ml) aqueous dispersion containing 4% (w/w) BPO (free or encapsulated) were suspended with 0.1% Tween™ 20 (polysorbate 20) and 9 g liquid vehicle and stirred in a 25 ml beaker with a magnetic stirrer. Following a mixing period of 30 minutes, the temperature of the system was raised to 50-55° C. and 1 ml of a 1% aqueous solution of congo red were added. The blank system (3) was prepared by stirring 9 ml 0.1% Tween™ 20 and 9 g liquid vehicle, and adding 1 ml of a 1% aqueous solution of congo red. After stirring the suspension for 1 minute, pictures of the three systems were taken.

[2] = Chemical stability of BPO in aqueous gel formulation, 40° C., 90 days (HPLC); conditions: 5% BPO, 90 days at 40° C. (FIG. 21)
Experimental: Geogard (0.7 g, Lonza) was dissolved in water by heating to 40-50° C. and the solution was allowed to cool to room temperature. Clindamycin phosphate was optionally dissolved in the solution (in formulations comprising antibiotics). Xanthan gum (1 g, Interaxion) was slowly added under medium mixing until the xanthan gum gel was formed. BPO microcapsules were then added to the gel by simple mixing. The composition of the gel formulation is detailed in Table 8 below.
BPO microcapsules were incorporated into the gel formulation (gel base comprising no clindamycin) at final BPO concentration of 5% and incubated at 40° C. over 90 days. Stability studies were performed for compositions comprising only encapsulated BPO or encapsulated BPO in combination with 0.75-1% of Clindamycin Phosphate. BPO concentration was determined immediately after incorporation into gel formulation and after 30, 60 and 90 days. Total concentration of BPO was determined by mixing 1 gr of the gel formulation with dichloromethane/methanollacetonitrile solution. BPO concentration in water phase was determined after separation of microcapsules from gel by centrifugation. The water phase was mixed with dichloromethane/methanol/acetonitrile solution in order to extract BPO and its content was determined using HPLC.

[3] = Chemical stability of BPO in gel containing 1% free retinol, 40° C., 30 days (HPLC); conditions: encapsulated = sample 21; gel with 1% free retinol, 5% BPO, 30 days storage at 40° C.
Experimental: HPLC was used for BPO analysis following storage at 40° C. (encapsulated BPO vs. free BPO in a gel formulation containing 1% free retinol).

SMILES: O=C(OOC(=O)c1ccccc1)c1ccccc1 [free BPO, benzoyl peroxide]
- color of congo red solution [1]: changed its color from red to yellow
- decrease in the concentration of BPO [2]: negligible decrease
- relative content of BPO from the initial concentration [3]: 36%
